Measured values reported in patent US4185156A, “Peptides and acid addition salts thereof” (Zaidan Hojin Biseibutsu Kagaku Kenkyu Kai, priority 1977, dated 1980).

Legend:
aminopeptidase B [1] = biological target: T1, aminopeptidase B (Rattus norvegicus, UniProt O09175); assay: Inhibitory activity against aminopeptidase B (modified Hopsu et al. method, arginine-β-naphthylamide substrate); type: biochemical; conditions: pH 7.0, 37° C., 30-minute reaction
T1 construct: an aminopeptidase B solution purified by using Sephadex G-100; from tissue; rat liver in the cited Hopsu et al. method (own knowledge)
T1 sequence (O09175 1-650): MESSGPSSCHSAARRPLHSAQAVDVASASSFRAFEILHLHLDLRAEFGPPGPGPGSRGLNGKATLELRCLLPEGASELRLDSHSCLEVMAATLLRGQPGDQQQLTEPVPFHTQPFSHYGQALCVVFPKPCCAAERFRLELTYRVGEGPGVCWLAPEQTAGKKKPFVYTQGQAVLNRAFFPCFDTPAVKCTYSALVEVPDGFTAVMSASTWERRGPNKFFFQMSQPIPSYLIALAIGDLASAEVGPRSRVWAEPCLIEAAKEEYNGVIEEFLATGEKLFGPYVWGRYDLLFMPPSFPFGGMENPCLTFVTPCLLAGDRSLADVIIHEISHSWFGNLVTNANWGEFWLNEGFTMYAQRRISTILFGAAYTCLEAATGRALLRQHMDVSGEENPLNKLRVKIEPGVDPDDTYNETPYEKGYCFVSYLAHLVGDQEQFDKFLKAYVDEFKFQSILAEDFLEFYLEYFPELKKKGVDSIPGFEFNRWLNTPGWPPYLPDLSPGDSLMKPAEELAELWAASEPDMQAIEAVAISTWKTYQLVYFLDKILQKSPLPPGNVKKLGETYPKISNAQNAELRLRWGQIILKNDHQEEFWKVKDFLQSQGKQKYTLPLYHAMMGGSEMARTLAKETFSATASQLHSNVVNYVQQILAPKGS
Description: A modified version of the Hopsu et al. method (V. K. Hopsu, K. K. Makinen and G. G. Glenner, Archives of Biochemistry and Biophysics 114, 557 (1966)) was used for determining the aminopeptidase B activity. A mixed solution (pH 7.0) prepared by adding 1.0 ml of 0.1 M tris-hydrochloride buffer and 0.7 ml of a solution containing the specimen to 0.3 ml of 0.1 mM arginine-β-naphthylamide was heated at 37° C. for 3 minutes and then added with 0.2 ml of an aminopeptidase B solution purified by using Sephadex G-100 (trademark for gelfiltrant composed of dextran derivative, manufactured by Pharmacia Fine Chemicals Inc.) according to the enzyme purification method of Hopsu et al. After 30-minute reaction at 37° C., 0.6 ml of 1.0 M acetate buffer (pH 4.2) containing Garnet GBC (o-aminoazotoluene diazonium salt) in concentration of 1.0 mg/ml and Tween 20 in concentration of 1.0% was added, and allowing the mixture to stand at room temperature for 15 minutes, absorbance (a) at 530 nm was measured. There was also measured absorbance (b) of the control using the buffer solution not containing the specimen. The aminopeptidase B inhibition percent was calculated from (b-a)/b×100.
Inhibition percentages at various specimen concentrations were measured according to the above-said testing method, and 50% inhibition (ID50) was induced therefrom.

leucine aminopeptidase = conditions: prior art; cited from earlier work
Bleomycin hydrolase = biological target: T2, Bleomycin hydrolase (Homo sapiens, UniProt Q13867); conditions: prior art; cited from earlier work
T2 sequence (Q13867 1-455): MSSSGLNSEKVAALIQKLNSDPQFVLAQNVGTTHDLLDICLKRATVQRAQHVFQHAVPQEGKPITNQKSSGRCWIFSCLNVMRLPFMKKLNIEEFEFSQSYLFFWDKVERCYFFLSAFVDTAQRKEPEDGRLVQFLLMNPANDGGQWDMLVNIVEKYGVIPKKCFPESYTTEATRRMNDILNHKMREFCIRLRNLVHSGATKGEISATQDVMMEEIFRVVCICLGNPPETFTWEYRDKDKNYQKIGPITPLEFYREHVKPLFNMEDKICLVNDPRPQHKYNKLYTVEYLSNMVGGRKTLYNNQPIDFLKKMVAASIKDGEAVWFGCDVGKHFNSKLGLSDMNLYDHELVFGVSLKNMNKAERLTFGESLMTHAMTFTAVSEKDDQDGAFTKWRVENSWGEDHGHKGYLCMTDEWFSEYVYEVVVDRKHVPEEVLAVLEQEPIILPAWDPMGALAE

aminopeptidase B [2] = biological target: T1, aminopeptidase B; conditions: prior art; cited from earlier work
[3] = system: lymphocytes from the peripheral blood of healthy canines; assay: Lymphocyte blastoid transformation with phytohemagglutinin (PHA), 3H-Thymidine incorporation; type: cell-based, canines (Beagle, Male); conditions: for 3H-Td.eta. incorporation (mean cpm ± SE): PHA + compound, canine lymphocytes, 72 hrs culture; for effect on lymphocyte blastoid formation with PHA (in words): summary of table 2
Description: Lymphocytes were prepared asptically from the peripheral blood of healthy canines (Beagle, Male) by gradient centrifugation of ficollsodium metriazoate. The lymphocytes (1×10^6 cells/ml) were cultured in RPMI-1640 medium with 10% fetal calf serum, antibiotic (Kanamycin 60μg/ml) and 15μg of phytohemagglutinin(PHA) at 37° C. in a humidified atomosphere of 5% CO2 and 95% air. After an incubation for 48 hrs, 2μCi of ^3 H-Thymidine was added to each dish, and the culture was continued for further 24 hrs to determine DNA synthesis. DNA synthesis was measured as ^3 H-Thymidine incorporation into acid in soluble materials.

SMILES | ID50 (50% inhibition of aminopeptidase B) (aminopeptidase B [1]) [μ g/ml] | inhibitory activity against leucine aminopeptidase (in words) (leucine aminopeptidase) | inhibitory activity against Bleomycin hydrolase (in words) (Bleomycin hydrolase) | inhibitory activity against aminopeptidase B (in words) (aminopeptidase B [2]) | IC50 (aminopeptidase B [1]; read-out: ID50 (50% inhibition of aminopeptidase B) (converted)) [nM] | 3H-Td.eta. incorporation (mean cpm ± SE) ([3]; dose 0.1 μg) [cpm] | 3H-Td.eta. incorporation (mean cpm ± SE) ([3]; dose 1.0 μg) [cpm] | 3H-Td.eta. incorporation (mean cpm ± SE) ([3]; dose 10.0 μg) [cpm] | effect on lymphocyte blastoid formation with PHA (in words) [3]
CC(=O)O.CC(=O)O.Cc1ccc(CC(N)C(O)C(=O)NC(CCCN=C(N)N)C(=O)O)cc1 (racemic) [Example 3, (2RS, 3RS)-3-amino-2-hydroxy-4-p-methylphenylbutanoyl-(S)-arginine diacetate] | 0.013 | – | – | – | – | – | – | – | –
Cl.Cl.N=C(N)NCCC[C@H](NC(=O)[C@H](O)[C@H](N)Cc1ccccc1Cl)C(=O)O (racemic) [Example 4, (2RS, 3RS)-3-amino-2-hydroxy-4-o-chlorophenylbutanoyl-(S)-arginine dihydrochloride] | 0.14 | – | – | – | – | – | – | – | –
CC(C)C[C@H](NC(=O)[C@@H](O)[C@H](N)Cc1ccccc1)C(=O)O [Bestatin, (2S, 3R)-3-amino-2-hydroxy-4-phenylbutanoyl-(S)-leucine, reference compound] | – | strong inhibitory activity | strong inhibitory activity | strong inhibitory activity | 324 | 19450 ± 189 | 16173 ± 631 | 18683 ± 71 | enhance the lymphocyte blastoid formation with PHA
Cl.N=C(N)NCCC[C@H](NC(=O)[C@@H](O)[C@H](N)Cc1ccccc1)C(=O)O [Example 1, (2S, 3R)-3-amino-2-hydroxy-4-phenylbutanoyl-(S)-arginine hydrochloride] | 0.03 | – | – | – | – | 17278 ± 400 | 19940 ± 1412 | 19050 ± 1988 | enhance the lymphocyte blastoid formation with PHA
N=C(N)NCCC[C@H](NC(=O)[C@@H](O)[C@H](N)Cc1ccc(O)cc1)C(=O)O [Example 2, (2S, 3R)-3-amino-2-hydroxy-4-p-hydroxyphenylbutanoyl-(S)-arginine diacetate] | 0.005 | – | – | – | – | 23113 ± 1236 | 21357 ± 578 | 20397 ± 304 | enhance the lymphocyte blastoid formation with PHA
